Several values for one entry are separate records, joined by “and”; a condition that tells them apart may be missing. Equal values may be shown once. Read-outs that look alike come from different tables or passages of the source.
Columns and labels:
[1] = system: prothrombin complex activity; assay: in vivo prothrombin complex activity (PCA), its degradation and synthesis rate, from prothrombin time; design: species or system rat; settings: for kd (first-order rate constant for degradation of PCA) / R°Syn (rate of synthesis of PCA) / PCA° (steady-state prothrombin complex activity before warfarin): individual pretreated rat; for kd (first-order rate constant for degradation of PCA): after 2 mg/kg i.v. warfarin; for R°Syn (rate of synthesis of PCA): PCA° × kd; for reduction in R°Syn: vs normal rats
[2] = system: vitamin K-dependent carboxylation; assay: in vitro vitamin K-dependent carboxylation in liver microsomes of pretreated rats; format: biochemical, rat; settings: for Normalized P∞ / V/KM (intrinsic formation rate of carboxylated vitamin K-dependent proteins): individual pretreated rat; for V/KM (intrinsic formation rate of carboxylated vitamin K-dependent proteins): liver microsomes about 22 hours after warfarin
Method: (§1) The procedures for preparation of vitamin K-dependent carboxylase and assay of carboxylation were similar to those described in other laboratories (J. Biol. Chem. 251, 2770-2776; Biochim. Biophys. Acta 499, 181-193). Each animal was studied under both control and inhibitory conditions. The rats were rendered unconscious with nitrogen, the liver was quickly excised and minced in a total volume of 2.0 ml ice cold buffer I (0.25M sucrose, 0.025M imidazole, pH 7.20) per gram of liver. The liver was homogenized using 4 passes of a Teflon pestle (clearance 0.15-0.23 mm; Arthur H. Thomas Co., Philadelphia, Pa.) at 300 rpm. The post-mitochondrial supernatant and microsomal pellet were prepared by a published procedure (J. Biol. Chem. 251, 2770-2776). The microsomal pellet was resuspended in buffer II (0.25 M sucrose, 0.025M imidazole, 0.080M KCl, pH 7.20). This suspension supplied both the enzymes (vitamin K-dependent carboxylase and enzymes for vitamin K biotransformations) and endogenous substrates (precursors of vitamin K-dependent proteins) of interest. Microsomal suspension protein concentration was determined by the method of Bradford (Anal. Biochem. 72, 248-254) as described for Bio-Rad reagent and adjusted to approximately 15 mg/ml in buffer II.
(§2) Control, blank, and experimental reaction mixtures were made for each experiment. Control and blank reaction mixtures were made up with vitamin K and without vitamin K, respectively. Experimental reaction mixtures contained both vitamin K and a vitamin K antagonist. The control reaction mixture contained 3.00 ml of microsomal suspension, 0.81 ml of buffer II, 1.20 ml of an ATP-generating system (final concentrations: 1 mM ATP, 10 mM phosphocreatine, 2.5 mM Mg[acetate]2 ·4H2 O, 20 μg/ml creatine phosphokinase [52 U/ml]), 0.60 ml of NADH (final concentration 2 mM), 0.30 ml of dithiothreitol (final concentration 7 mM) dissolved in buffer II, 0.060 ml of NaH^14 CO3 (1.0 μCi/μl; added 0.5 min prior to reaction initiation), and at the time of reaction initiation 0.030 ml of vitamin K1 (final concentration 20 μg/ml) diluted in 0.85% sodium chloride solution. This vitamin K concentration is associated with maximal in vitro incorporation of added H^14 CO3 into vitamin K-dependent substrate proteins (J. Biol. Chem. 251, 2770-2776). The blank reaction mixture consisted of the same components except that vitamin K was replaced by an equal volume of isotonic saline. The experimental reaction mixtures were made up in the same way as the control reaction mixtures with the exceptions that: (1) a volume of buffer II was replaced by a volume of buffer II containing an inhibitor of vitamin K-dependent carboxylation, and (2) all individual volumes were two-thirds of those in the control reaction mixtures. […] Chloro-K1 was formulated as an oil-in-water emulsion with Tween 80 (5% v/v final concentration), while chloro-K3 was formulated as a suspension in Tween 80 (5% v/v final concentration) (Molecular Pharmacology 10, 373-380).
Reaction mixtures were incubated for 5 minutes at 100 excursions per minute in a reciprocating shaker water bath at 27° . After addition of vitamin K or saline, serial samples (0.45 ml each) were collected from each control and blank reaction tube at 2, 4, 6, 8, 10, 12, 14, 16, 30, 60, 90, and 120 minutes, and from each experimental reaction tube at 2, 4, 6, 8, 10, 12, 14, and 16 minutes. Each 0.45 ml sample was transferred to a tube containing 1 ml of ice-cold 10% TCA. The TCA-precipitated ^14 C-containing protein pellet was then prepared as previously described (J. Biol. Chem. 251, 2770-2776) and radioactivity was determined in an Intertechnique (Plaisir, France) liquid scintillation spectrometer using the external standard method of quench correction. […]

[3] = system: vitamin K-dependent carboxylation; assay: in vitro rat hepatic microsomal vitamin K-dependent carboxylation of endogenous substrate, inhibition by vitamin K antagonists; format: biochemical; settings: for Slope (% Inhibition/Concentration), mean ± S.D.: slope parameter s of logistic function; for IO (percent inhibition when C = 0), mean: third fit parameter of logistic function
Method: as §1, §2
Reaction mixtures were incubated for 5 minutes at 100 excursions per minute in a reciprocating shaker water bath at 27° . After addition of vitamin K or saline, serial samples (0.45 ml each) were collected from each control and blank reaction tube at 2, 4, 6, 8, 10, 12, 14, 16, 30, 60, 90, and 120 minutes, and from each experimental reaction tube at 2, 4, 6, 8, 10, 12, 14, and 16 minutes. Each 0.45 ml sample was transferred to a tube containing 1 ml of ice-cold 10% TCA. The TCA-precipitated ^14 C-containing protein pellet was then prepared as previously described (J. Biol. Chem. 251, 2770-2776) and radioactivity was determined in an Intertechnique (Plaisir, France) liquid scintillation spectrometer using the external standard method of quench correction.

[4] = system: prothrombin complex activity; settings: 2 mg/kg sodium warfarin i.v., approximately 19 hours prior to sacrifice; cited from earlier work
rats = settings: cited from earlier work
[5] = percent inhibition of vitamin K-dependent carboxylation vs concentration, logistic fit per animal, vitamin K1 20 μg/ml, 27°, read-out: IC50 (mean ± S.D.)
[6] = range among individual rats, read-out: IC50 (range)

Compound: ClC(Cl)(Cl)Cl [CCl4, carbon tetrachloride]
- average turnover time of PCA ([1]; group average): 3.27 ± 1.34 h
- biologic half-life of PCA ([1]; group average): 2.27±0.94 hours
- kd, average of treated rats ([1]; group average): 8.49 ± 4.69 day⁻¹
- kd (first-order rate constant for degradation of PCA) ([1]; listed as OCl4): 5.98 day⁻¹ and 13.90 day⁻¹ and 5.89 day⁻¹
- R°Syn (rate of synthesis of PCA) ([1]; listed as OCl4): 101 %/day and 137 %/day
- PCA° (steady-state prothrombin complex activity before warfarin) ([1]; listed as OCl4): 16.9% and 9.9% and 23.4%
- reduction in R°Syn [1]: approximately 62%
- Normalized P∞ [2]: 6.58 dpm ^14 C incorporated/mg prot and 9.86 dpm ^14 C incorporated/mg prot and 9.04 dpm ^14 C incorporated/mg prot
- V/KM (intrinsic formation rate of carboxylated vitamin K-dependent proteins) [2]: 0.0798 min⁻¹ and 0.0944 min⁻¹ and 0.1257 min⁻¹
- reduction in V/KM ([2]; two rats receiving 1.0 ml CCl4/kg): 20-30%

Compound: O=C1C=C(Cl)C(=O)c2ccccc21 [Chloro-K3, 2-chloro-1,4-naphthoquinone]
- times more potent than warfarin ([3]; in vitro rat hepatic vitamin K-dependent carboxylation system): 45 times
- IC50 [3, 5]: 146 ± 62.1 µM
- Slope (% Inhibition/Concentration), range ([3]; range among individual rats): 0.738-1.55 % Inhibition/Concentration
- IC50 [3, 6]: 100 to 236 µM
- Slope (% Inhibition/Concentration), mean ± S.D. [3]: 1.20 ± 0.340 % Inhibition/Concentration

Compound: CC(=O)CC(c1ccccc1)c1c(O)c2ccccc2oc1=O (stereo not shown) [Warfarin, warfarin]
- Slope (% Inhibition/Concentration), range ([3]; range among individual rats): 0.637-2.20 % Inhibition/Concentration
- IO (percent inhibition when C = 0), mean [3]: 8.89 ± 3.77%
- IO (percent inhibition when C = 0), mean ([3]; listed as warfarin): 8.9%
- IO (percent inhibition when C = 0), range ([3]; third fit parameter, range among rats): 2.74-13.1%
- IC50 ([3]; warfarin, logistic fit with IO as third parameter, read-out: IC50 (mean ± S.D.)): 6630 ± 2850 µM
- plasma prothrombin complex activity at the time of sacrifice [4]: ~6 % of normal
- LD50 (may actually be as high as) (rats; in rats): 10 to 50 mg/kg
- LD50 (assumed) (rats; intravenously administered, assumed value): 0.2 mg/kg

Compound: C/C(=C\CC1=C(Cl)C(=O)c2ccccc2C1=O)CCC[C@H](C)CCC[C@H](C)CCCC(C)C [Chloro-K1, 2-Chloro-3-phytyl-1,4-naphthoquinone]
- IC50 [3, 5]: 285 ± 89.3 µM
- Slope (% Inhibition/Concentration), range ([3]; range among individual rats): 0.469-0.898 % Inhibition/Concentration
- IC50 [3, 6]: 171 to 393 µM
- Slope (% Inhibition/Concentration), mean ± S.D. [3]: 0.634 ± 0.159 % Inhibition/Concentration

Compound: Oc1c(Cl)c(Cl)nc(Cl)c1Cl [TCP, 2,3,5,6-Tetrachloropyridin-4-ol]
- difference between IC50 of most potent (TCP) and least potent (warfarin) compound [3]: approximately 5,000 fold
- IC50 ([3]; as printed in discussion text, read-out: average IC50): 1.23 µM
- IC50 [3, 5]: 1.23 ± 0.24 µM
- Slope (% Inhibition/Concentration), range ([3]; range among individual rats): 0.734-1.02 % Inhibition/Concentration
- IC50 [3, 6]: 0.89 to 1.44 µM
- Slope (% Inhibition/Concentration), mean ± S.D. [3]: 0.884 ± 0.117 % Inhibition/Concentration

Compound: CCC1(c2ccccc2)C(=O)NC(=O)NC1=O [Phenobarbital, Phenobarbital sodium]
- PCA° (steady-state prothrombin complex activity before warfarin) [1]: 143.1% and 102.7%
- kd (first-order rate constant for degradation of PCA) [1]: 3.72 day⁻¹ and 4.12 day⁻¹
- R°Syn (rate of synthesis of PCA) [1]: 533 %/day and 423 %/day
- average increase in PCA° beyond normal rats ([1]; two treated rats vs four normal rats): 38%
- average increase in R°Syn beyond normal rats ([1]; two treated rats vs normal rats): 44%
- Normalized P∞ [2]: 4.92 dpm ^14 C incorporated/mg prot and 5.86 dpm ^14 C incorporated/mg prot
- V/KM (intrinsic formation rate of carboxylated vitamin K-dependent proteins) [2]: 0.1174 min⁻¹ and 0.1586 min⁻¹

Compound: S=C=Nc1cccc2ccccc12 [ANIT, α-naphthylisothiocyanate]
- PCA° (steady-state prothrombin complex activity before warfarin) [1]: 56.1% and 56%
- kd (first-order rate constant for degradation of PCA) [1]: 2.76 day⁻¹
- R°Syn (rate of synthesis of PCA) [1]: 155 %/day
- reduction in R°Syn [1]: approximately 53%
- Normalized P∞ [2]: 15.59 dpm ^14 C incorporated/mg prot
- V/KM (intrinsic formation rate of carboxylated vitamin K-dependent proteins) [2]: 0.1104 min⁻¹
- increase in normalized P∞ ([2]; one treated rat vs normal): approximately 50%

Compound: O=C1c2ccccc2C(=O)C1c1ccccc1 [Phenindione, phenindione]
- IC50 [3, 5]: 19 ± 11.2 µM
- Slope (% Inhibition/Concentration), range ([3]; range among individual rats): 0.269-0.963 % Inhibition/Concentration
- IC50 [3, 6]: 7.36 to 30.2 µM
- Slope (% Inhibition/Concentration), mean ± S.D. [3]: 0.475 ± 0.330 % Inhibition/Concentration

Compound: O=C1C(Cl)=CC(=Nc2ccc(O)cc2)C=C1Cl [2,6-DIP, 2,6-dichloroindophenol sodium]
- IC50 [3, 5]: 116 ± 39.2 µM
- Slope (% Inhibition/Concentration), range ([3]; range among individual rats): 0.940-1.36 % Inhibition/Concentration
- IC50 [3, 6]: 78.1 to 160 µM
- Slope (% Inhibition/Concentration), mean ± S.D. [3]: 1.13 ± 0.174 % Inhibition/Concentration

From patent US4734282A, “Rodenticidal compositions containing 1,4-naphthoquinone derivatives” (priority 1986, dated 1988)
